Assay results as given in the supplement of paper PMC10307832.

Key:
Assay in all cases: relative viability (nuclei count vs DMSO), 5 days (fraction); higher = more cells survive
17-AAG + Pemetrexed = compound: C=CCNC1=C2C[C@@H](C)C[C@H](OC)[C@H](O)[C@@H](C)/C=C(\C)[C@H](OC(N)=O)[C@@H](OC)/C=C\C=C(/C)C(=O)NC(=CC1=O)C2=O [17-AAG] + Nc1nc2[nH]cc(CCc3ccc(C(=O)N[C@@H](CCC(=O)O)C(=O)O)cc3)c2c(=O)[nH]1 [Pemetrexed] (partner 0.2 µM)
Method in brief: (§1)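 After 5 days of treatment, lung cancer cells in 1536-well plates were fixed and stained in a single step (final 0.05% Triton X-100, 1% formaldehyde, 1 ug/ml Hoechst) and their nuclei counted on 4× images. Treatment had been applied by pin tool the day after seeding as one drug alone or as a fixed anchor-drug dose with five library-drug doses (not always all listed) in √10 steps. Relative viability is the nuclei count of treated wells divided by that of vehicle wells, and values are medians of duplicate plates.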

17-AAG + Foretinib = compound: C=CCNC1=C2C[C@@H](C)C[C@H](OC)[C@H](O)[C@@H](C)/C=C(\C)[C@H](OC(N)=O)[C@@H](OC)/C=C\C=C(/C)C(=O)NC(=CC1=O)C2=O [17-AAG] + COc1cc2c(Oc3ccc(NC(=O)C4(C(=O)Nc5ccc(F)cc5)CC4)cc3F)ccnc2cc1OCCCN1CCOCC1 [Foretinib] (partner 0.25 µM)
Method in brief: as §1

17-AAG + Alpelisib = compound: C=CCNC1=C2C[C@@H](C)C[C@H](OC)[C@H](O)[C@@H](C)/C=C(\C)[C@H](OC(N)=O)[C@@H](OC)/C=C\C=C(/C)C(=O)NC(=CC1=O)C2=O [17-AAG] + Cc1nc(NC(=O)N2CCC[C@H]2C(N)=O)sc1-c1ccnc(C(C)(C)C(F)(F)F)c1 [Alpelisib] (partner 2 µM)
Method in brief: as §1

17-AAG + Olaparib = compound: C=CCNC1=C2C[C@@H](C)C[C@H](OC)[C@H](O)[C@@H](C)/C=C(\C)[C@H](OC(N)=O)[C@@H](OC)/C=C\C=C(/C)C(=O)NC(=CC1=O)C2=O [17-AAG] + O=C(c1cc(Cc2n[nH]c(=O)c3ccccc23)ccc1F)N1CCN(C(=O)C2CC2)CC1 [Olaparib] (partner 8 µM)
Method in brief: as §1

Cell Line	relative viability (17-AAG + Pemetrexed; first compound 0.00128 µM)	relative viability (17-AAG + Pemetrexed; first compound 0.004048 µM)	relative viability (17-AAG + Pemetrexed; first compound 0.0128 µM)	relative viability (17-AAG + Pemetrexed; first compound 0.04048 µM)	relative viability (17-AAG + Pemetrexed; first compound 0.128 µM)	relative viability (17-AAG + Foretinib; first compound 0.00128 µM)	relative viability (17-AAG + Foretinib; first compound 0.004048 µM)	relative viability (17-AAG + Foretinib; first compound 0.0128 µM)	relative viability (17-AAG + Foretinib; first compound 0.04048 µM)	relative viability (17-AAG + Foretinib; first compound 0.128 µM)	relative viability (17-AAG + Alpelisib; first compound 0.00128 µM)	relative viability (17-AAG + Alpelisib; first compound 0.004048 µM)	relative viability (17-AAG + Alpelisib; first compound 0.0128 µM)	relative viability (17-AAG + Alpelisib; first compound 0.04048 µM)	relative viability (17-AAG + Alpelisib; first compound 0.128 µM)	relative viability (17-AAG + Olaparib; first compound 0.00128 µM)	relative viability (17-AAG + Olaparib; first compound 0.004048 µM)	relative viability (17-AAG + Olaparib; first compound 0.0128 µM)	relative viability (17-AAG + Olaparib; first compound 0.04048 µM)	relative viability (17-AAG + Olaparib; first compound 0.128 µM)
NCI-H2009	1.01	1.03	1.04	0.86	0.166	1.23	1.14	1.17	0.85	0.138	1.13	1.19	1.13	0.853	0.366	0.699	0.712	0.7	0.295	0.0798
NCI-H2126	0.689	0.749	0.746	0.257	0.258	1.29	1.19	1.05	0.908	0.236	0.757	0.792	0.742	0.714	0.303	0.895	0.887	0.893	0.762	0.265
LXF-289	0.889	0.874	0.575	0.201	0.0927	1.05	0.961	0.879	0.381	0.152	1.07	1.03	0.882	0.647	0.118	1.06	0.936	0.889	0.817	0.135
PC-3 [JPC-3]	1.23	1.12	1.18	0.491	0.85	0.981	1.04	1.01	–	0.885	0.976	1.03	1.02	–	0.955	1.23	1.17	1.16	0.581	0.697
HOP-62	0.409	0.314	0.271	0.127	0.109	1.16	1.05	0.858	0.549	0.382	0.907	1.04	1.1	0.939	0.38	0.445	0.411	0.22	0.171	0.0948
NCI-H358	0.156	0.19	0.126	0.0833	0.0832	0.669	0.397	0.0697	0.0813	0.0542	0.838	0.556	0.126	0.134	0.126	0.606	0.522	0.0873	0.0667	0.0637
SK-MES-1	0.951	0.781	0.284	0.171	0.153	1	0.997	0.501	0.192	0.154	0.884	0.842	0.553	0.144	0.152	0.732	0.494	0.184	0.17	0.16
NCI-H1666	0.921	0.877	0.908	0.515	0.517	1.04	0.963	0.587	0.383	0.341	0.949	0.713	0.299	0.216	0.214	0.756	0.721	0.712	0.526	0.556
NCI-H1355	1	0.993	1.06	0.623	0.164	0.938	0.97	0.91	0.843	0.328	0.867	0.86	0.884	0.86	0.327	0.749	0.718	0.459	0.2	0.136
HCC-827	0.283	0.264	0.257	–	0.218	1.06	0.978	1.03	–	0.727	1.03	1.05	0.997	–	0.899	0.698	0.755	0.769	–	0.331
HARA	0.256	0.257	0.29	0.198	0.147	0.884	0.911	0.865	0.792	0.455	0.887	0.967	0.736	0.828	0.378	0.891	0.78	1.02	1.18	0.18
HCC-366	0.207	0.311	0.127	0.0359	0.0398	0.958	0.968	0.89	0.126	0.0491	0.565	0.333	0.0236	0.0226	0.0154	0.414	0.357	0.0266	0.0306	0.0265
NCI-H441	0.255	0.28	0.284	0.106	0.125	0.903	0.862	0.39	0.211	0.0805	0.625	0.61	0.236	0.172	0.145	0.555	0.547	0.208	0.135	0.124
NCI-H2405	1.05	0.956	0.267	0.186	0.156	1.1	1.04	0.93	0.245	0.195	0.942	0.695	0.221	0.233	0.16	0.797	0.856	0.275	0.233	0.168
NCI-H1975	0.299	0.338	0.191	0.162	0.156	1.02	0.904	0.288	0.136	0.118	0.583	0.365	0.147	0.139	0.124	0.745	0.765	0.158	0.128	0.121
